ChEMBL document CHEMBL1201861, “Genomics of Drug Sensitity in Cancer screening data, Wellcome Trust Sanger Institute”

Assays:
Experiment in all cases: cells
[1] = tested on: HT-3; type: functional, cell-based, Homo sapiens; conditions: Homo sapiens, HT-3;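 also: growth inhibition measured with a cell viability readout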
Description: SANGER: Inhibition of human HT-3 cell growth in a cell viability assay.

[2] = tested on: NEC8; type: functional, cell-based, Homo sapiens; conditions: Homo sapiens, NEC8;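 also: growth inhibition of human NEC8 cells, read out by a cell viability assay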
Description: SANGER: Inhibition of human NEC8 cell growth in a cell viability assay.

[3] = tested on: GCIY; type: functional, cell-based, Homo sapiens; conditions: Homo sapiens, GCIY;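 also: growth inhibition of the human GCIY cell line, read out by a cell viability assay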
Description: SANGER: Inhibition of human GCIY cell growth in a cell viability assay.

[4] = tested on: CP66-MEL; type: functional, cell-based, Homo sapiens; conditions: Homo sapiens, CP66-MEL;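 also: growth inhibition of CP66-MEL cells determined in a cell viability assay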
Description: SANGER: Inhibition of human CP66-MEL cell growth in a cell viability assay.

[5] = tested on: C-33-A; type: functional, cell-based, Homo sapiens; conditions: Homo sapiens, C-33-A;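 also: cell viability assay measuring growth inhibition of C-33-A cells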
Description: SANGER: Inhibition of human C-33-A cell growth in a cell viability assay.

[6] = tested on: SK-OV-3; type: functional, cell-based, Homo sapiens; conditions: Homo sapiens, SK-OV-3;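 also: growth inhibition of SK-OV-3 human cells, read out with a cell viability assay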
Description: SANGER: Inhibition of human SK-OV-3 cell growth in a cell viability assay.

[7] = tested on: CAL-72; type: functional, cell-based, Homo sapiens; conditions: Homo sapiens, CAL-72;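 also: cell viability assay measuring inhibition of proliferation in the CAL-72 cell line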
Description: SANGER: Inhibition of human CAL-72 cell growth in a cell viability assay.

[8] = tested on: UACC-62; type: functional, cell-based, Homo sapiens; conditions: Homo sapiens, UACC-62;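 also: growth inhibition of human UACC-62 cells, read out by a cell viability assay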
Description: SANGER: Inhibition of human UACC-62 cell growth in a cell viability assay.

[9] = tested on: NCI-H596; type: functional, cell-based, Homo sapiens; conditions: Homo sapiens, NCI-H596;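 also: growth inhibition of NCI-H596 cells, read out with a cell viability assay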
Description: SANGER: Inhibition of human NCI-H596 cell growth in a cell viability assay.

[10] = tested on: MV4-11; type: functional, cell-based, MV-4-11; conditions: Homo sapiens;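 also: cell viability readout measuring growth inhibition of human MV-4-11 cells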
Description: SANGER: Inhibition of human MV-4-11 cell growth in a cell viability assay.

[11] = tested on: MDA-MB-157; type: functional, cell-based, Homo sapiens; conditions: Homo sapiens, MDA-MB-157
Description: SANGER: Inhibition of human MDA-MB-157 cell growth in a cell viability assay.

[12] = tested on: BFTC-905; type: functional, cell-based, Homo sapiens; conditions: Homo sapiens, BFTC-905
Description: SANGER: Inhibition of human BFTC-905 cell growth in a cell viability assay.

[13] = tested on: U-251; type: functional, cell-based, Homo sapiens; conditions: Homo sapiens, U-251;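 also: growth inhibition of human U-251 cells, read out through a cell viability assay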
Description: SANGER: Inhibition of human U251 cell growth in a cell viability assay.

[14] = tested on: BT-20; type: functional, cell-based, Homo sapiens; conditions: Homo sapiens, BT-20;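 also: cell viability assay measuring suppression of growth in human BT-20 cells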
Description: SANGER: Inhibition of human BT-20 cell growth in a cell viability assay.

[15] = tested on: OE19; type: functional, cell-based, Homo sapiens; conditions: Homo sapiens, OE19;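 also: growth inhibition of OE19 cells, measured through a cell viability read-out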
Description: SANGER: Inhibition of human OE19 cell growth in a cell viability assay.

[16] = tested on: HTC-C3; type: functional, cell-based, Homo sapiens; conditions: Homo sapiens, HTC-C3;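 also: inhibition of cell growth, read out with a cell viability assay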
Description: SANGER: Inhibition of human HTC-C3 cell growth in a cell viability assay.

[17] = tested on: LU-139; type: functional, cell-based; conditions: Homo sapiens
Description: SANGER: Inhibition of human LU-139 cell growth in a cell viability assay.

[18] = tested on: T98G; type: functional, cell-based, Homo sapiens; conditions: Homo sapiens, T98G;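 also: growth inhibition of T98G cells, read out by a cell viability assay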
Description: SANGER: Inhibition of human T98G cell growth in a cell viability assay.

[19] = tested on: SBC-1; type: functional, cell-based; conditions: Homo sapiens;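 also: cell viability assay measuring growth inhibition of the SBC-1 cell line, IC50 being the concentration that halves growth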
Description: SANGER: Inhibition of human SBC-1 cell growth in a cell viability assay.

[20] = tested on: HT-1376; type: functional, cell-based, Homo sapiens; conditions: Homo sapiens, HT-1376
Description: SANGER: Inhibition of human HT-1376 cell growth in a cell viability assay.

[21] = tested on: ETK-1; type: functional, cell-based, Homo sapiens; conditions: Homo sapiens, ETK-1;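 also: growth inhibition of human ETK-1 cells, read out with a cell viability assay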
Description: SANGER: Inhibition of human ETK-1 cell growth in a cell viability assay.

[22] = tested on: CAL-85-1; type: functional, cell-based; conditions: Homo sapiens;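 also: growth inhibition of human CAL-85-1 cells, read out with a cell viability assay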
Description: SANGER: Inhibition of human CAL-85-1 cell growth in a cell viability assay.

[23] = tested on: SW626; type: functional, cell-based, Homo sapiens; conditions: Homo sapiens, SW626;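 also: growth inhibition of SW626 cells, measured with a cell viability assay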
Description: SANGER: Inhibition of human SW626 cell growth in a cell viability assay.

[24] = tested on: HSC-3; type: functional, cell-based, Homo sapiens; conditions: Homo sapiens, HSC-3
Description: SANGER: Inhibition of human HSC-3 cell growth in a cell viability assay.

[25] = tested on: NB69; type: functional, cell-based, Homo sapiens; conditions: Homo sapiens, NB69;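 also: growth inhibition of NB69 cells, determined by a cell viability assay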
Description: SANGER: Inhibition of human NB69 cell growth in a cell viability assay.

[26] = tested on: KMOE-2; type: functional, cell-based; conditions: Homo sapiens;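 also: growth inhibition of human KMOE-2 cells, read out with a cell viability assay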
Description: SANGER: Inhibition of human KMOE-2 cell growth in a cell viability assay.

[27] = tested on: MDA-MB-453; type: functional, cell-based, Homo sapiens; conditions: Homo sapiens, MDA-MB-453
Description: SANGER: Inhibition of human MDA-MB-453 cell growth in a cell viability assay.

[28] = tested on: A3-KAW; type: functional, cell-based; conditions: Homo sapiens;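 also: growth inhibition of human A3-KAW cells, read out with a cell viability assay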
Description: SANGER: Inhibition of human A3-KAW cell growth in a cell viability assay.

[29] = tested on: SW1463; type: functional, cell-based, Homo sapiens; conditions: Homo sapiens, SW1463;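 also: growth inhibition of SW1463 cells, determined with a cell viability assay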
Description: SANGER: Inhibition of human SW1463 cell growth in a cell viability assay.

[30] = tested on: D-336MG; type: functional, cell-based, Homo sapiens; conditions: Homo sapiens, D-336MG
Description: SANGER: Inhibition of human D-336MG cell growth in a cell viability assay.

[31] = tested on: ALL-PO; type: functional, cell-based; conditions: Homo sapiens;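 also: growth inhibition of ALL-PO cells, read out by a cell viability assay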
Description: SANGER: Inhibition of human ALL-PO cell growth in a cell viability assay.

[32] = tested on: MKN-1; type: functional, cell-based, Homo sapiens; conditions: Homo sapiens, MKN-1;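 also: growth inhibition of human MKN1 cells, read out by a cell viability measurement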
Description: SANGER: Inhibition of human MKN1 cell growth in a cell viability assay.

[33] = tested on: EW-3; type: functional, cell-based; conditions: Homo sapiens;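 also: cell viability assay read-out, IC50 reflects inhibition of growth of the EW-3 cells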
Description: SANGER: Inhibition of human EW-3 cell growth in a cell viability assay.

[34] = tested on: DU-145; type: functional, cell-based, Homo sapiens; conditions: Homo sapiens, DU-145
Description: SANGER: Inhibition of human DU-145 cell growth in a cell viability assay.

[35] = tested on: BE-13; type: functional, cell-based; conditions: Homo sapiens;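 also: growth inhibition of human BE-13 cells, measured with a cell viability assay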
Description: SANGER: Inhibition of human BE-13 cell growth in a cell viability assay.

[36] = tested on: EFO-27; type: functional, cell-based, Homo sapiens; conditions: Homo sapiens, EFO-27;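 also: growth inhibition of EFO-27 cells, read out with a cell viability assay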
Description: SANGER: Inhibition of human EFO-27 cell growth in a cell viability assay.

[37] = tested on: NCI-H441; type: functional, cell-based; conditions: Homo sapiens;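 also: growth inhibition of NCI-H441 cells, read out with a cell viability assay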
Description: SANGER: Inhibition of human NCI-H441 cell growth in a cell viability assay.

[38] = tested on: NCI-H1581; type: functional, cell-based, Homo sapiens; conditions: Homo sapiens, NCI-H1581;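 also: cell growth inhibition read out by a viability assay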
Description: SANGER: Inhibition of human NCI-H1581 cell growth in a cell viability assay.

[39] = tested on: K562; type: functional, cell-based; conditions: Homo sapiens
Description: SANGER: Inhibition of human K-562 cell growth in a cell viability assay.

[40] = tested on: PSN1; type: functional, cell-based, Homo sapiens; conditions: Homo sapiens, PSN1;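 also: suppression of growth of human PSN1 cells, read out by a cell viability assay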
Description: SANGER: Inhibition of human PSN1 cell growth in a cell viability assay.

[41] = tested on: SCC-15; type: functional, cell-based, Homo sapiens; conditions: Homo sapiens, SCC-15;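 also: growth inhibition of SCC-15 cells, read out with a cell viability assay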
Description: SANGER: Inhibition of human SCC-15 cell growth in a cell viability assay.

[42] = tested on: PC-3; type: functional, cell-based, Homo sapiens; conditions: Homo sapiens, PC-3;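 also: cell viability assay measuring growth inhibition of PC-3 cells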
Description: SANGER: Inhibition of human PC-3 cell growth in a cell viability assay.

[43] = tested on: LB831-BLC; type: functional, cell-based, Homo sapiens; conditions: Homo sapiens, LB831-BLC;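 also: growth inhibition of LB831-BLC cells, read out with a cell viability assay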
Description: SANGER: Inhibition of human LB831-BLC cell growth in a cell viability assay.

[44] = tested on: MDA-MB-231; type: functional, cell-based, Homo sapiens; conditions: Homo sapiens, MDA-MB-231
Description: SANGER: Inhibition of human MDA-MB-231 cell growth in a cell viability assay.

[45] = tested on: NTERA-2-cl-D1; type: functional, cell-based, Homo sapiens; conditions: Homo sapiens, NTERA-2-cl-D1;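 also: inhibition of cell growth, measured with a cell viability assay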
Description: SANGER: Inhibition of human NTERA-S-cl-D1 cell growth in a cell viability assay.

[46] = tested on: NCI-H1838; type: functional, cell-based, Homo sapiens; conditions: Homo sapiens, NCI-H1838;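 also: growth inhibition of NCI-H1838 cells, determined with a cell viability readout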
Description: SANGER: Inhibition of human NCI-H1838 cell growth in a cell viability assay.

[47] = tested on: Hs-578T; type: functional, cell-based, Homo sapiens; conditions: Homo sapiens, Hs-578T
Description: SANGER: Inhibition of human Hs-578-T cell growth in a cell viability assay.

[48] = tested on: HCC1395; type: functional, cell-based, Homo sapiens; conditions: Homo sapiens, HCC1395;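 also: growth inhibition of HCC1395 cells, read out by a cell viability assay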
Description: SANGER: Inhibition of human HCC1395 cell growth in a cell viability assay.

[49] = tested on: SCC-9; type: functional, cell-based, Homo sapiens; conditions: Homo sapiens, SCC-9;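 also: Read-out is a cell viability assay, with values giving inhibition of cell growth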
Description: SANGER: Inhibition of human SCC-9 cell growth in a cell viability assay.

[50] = tested on: Detroit 562; type: functional, cell-based, Homo sapiens; conditions: Homo sapiens, Detroit 562;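 also: growth inhibition of human Detroit 562 cells, read out by a cell viability assay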
Description: SANGER: Inhibition of human Detroit562 cell growth in a cell viability assay.

[51] = tested on: HCC2157; type: functional, cell-based; conditions: Homo sapiens;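 also: growth inhibition of the cancer cell line, read out as cell viability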
Description: SANGER: Inhibition of human HCC2157 cell growth in a cell viability assay.

[52] = tested on: A253 cell line; type: functional, cell-based, Homo sapiens; conditions: Homo sapiens, A253;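 also: growth inhibition of A253 cells, read out with a cell viability assay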
Description: SANGER: Inhibition of human A253 cell growth in a cell viability assay.

## CC(=O)O[C@@]12CO[C@@H]1C[C@H](O)[C@@]1(C)C(=O)[C@H](O)C3=C(C)[C@@H](OC(=O)[C@H](O)[C@@H](NC(=O)OC(C)(C)C)c4ccccc4)C[C@@](O)([C@@H](OC(=O)c4ccccc4)[C@H]21)C3(C)C [DOCETAXEL]
[1]
  IC50: 2.82 nM
[2]
  IC50: 0.561 nM
[3]
  IC50: > 10 nM
[4]
  IC50: 3 nM
[5]
  IC50: 2.66 nM
[6]
  IC50: > 10 nM
[7]
  IC50: > 10 nM
[8]
  IC50: 3.3 nM
[9]
  IC50: > 10 nM
[10]
  IC50: 1.74 nM
[11]
  IC50: > 10 nM
[12]
  IC50: 0.268 nM
[13]
  IC50: 2.5 nM
[14]
  IC50: 3.76 nM
[15]
  IC50: 5.59 nM
[16]
  IC50: 2.85 nM
[17]
  IC50: > 10 nM
[18]
  IC50: 1.17 nM
[19]
  IC50: 0.43 nM
[20]
  IC50: > 10 nM
[21]
  IC50: 0.558 nM
[22]
  IC50: > 10 nM
[23]
  IC50: 6.24 nM
[24]
  IC50: 0.132 nM
[25]
  IC50: 6.29 nM
[26]
  IC50: > 10 nM
[27]
  IC50: 4.51 nM
[28]
  IC50: > 10 nM
[29]
  IC50: > 10 nM
[30]
  IC50: 1.69 nM
[31]
  IC50: 8.6 nM
[32]
  IC50: > 10 nM
[33]
  IC50: 0.745 nM
[34]
  IC50: > 10 nM
[35]
  IC50: 3.93 nM
[36]
  IC50: 1.02 nM
[37]
  IC50: > 10 nM
[38]
  IC50: 2.17 nM
[39]
  IC50: > 10 nM
[40]
  IC50: 0.581 nM
[41]
  IC50: 6.89 nM
[42]
  IC50: > 10 nM
[43]
  IC50: 1.48 nM
[44]
  IC50: 7.3 nM
[45]
  IC50: 0.773 nM
[46]
  IC50: > 10 nM
[47]
  IC50: 2.72 nM
[48]
  IC50: > 10 nM
[49]
  IC50: 1.32 nM
[50]
  IC50: 0.902 nM

## C[C@]1(O)C[C@@H](c2nc(-c3ccc4ccc(-c5ccccc5)nc4c3)c3c(N)nccn32)C1 [LINSITINIB]
[1]
  IC50: > 2560 nM
[2]
  IC50: > 2560 nM
[51]
  IC50: > 2560 nM
[3]
  IC50: > 2560 nM
[4]
  IC50: 2290 nM
[5]
  IC50: > 2560 nM
[6]
  IC50: > 2560 nM
[7]
  IC50: > 2560 nM
[8]
  IC50: > 2560 nM
[9]
  IC50: > 2560 nM
[10]
  IC50: > 2560 nM
[11]
  IC50: > 2560 nM
[12]
  IC50: 468 nM
[13]
  IC50: > 2560 nM
[14]
  IC50: > 2560 nM
[15]
  IC50: > 2560 nM
[16]
  IC50: > 2560 nM
[17]
  IC50: > 2560 nM
[18]
  IC50: > 2560 nM
[19]
  IC50: > 2560 nM
[20]
  IC50: > 2560 nM
[21]
  IC50: > 2560 nM
[22]
  IC50: 1230 nM
[23]
  IC50: > 2560 nM
[24]
  IC50: > 2560 nM
[25]
  IC50: 583 nM
[26]
  IC50: > 2560 nM
[27]
  IC50: > 2560 nM
[28]
  IC50: > 2560 nM
[29]
  IC50: > 2560 nM
[31]
  IC50: > 2560 nM
[32]
  IC50: > 2560 nM
[33]
  IC50: 2100 nM
[34]
  IC50: > 2560 nM
[35]
  IC50: > 2560 nM
[36]
  IC50: > 2560 nM
[37]
  IC50: > 2560 nM
[38]
  IC50: > 2560 nM
[39]
  IC50: > 2560 nM
[40]
  IC50: > 2560 nM
[41]
  IC50: > 2560 nM
[42]
  IC50: > 2560 nM
[43]
  IC50: > 2560 nM
[44]
  IC50: > 2560 nM
[45]
  IC50: > 2560 nM
[46]
  IC50: > 2560 nM
[47]
  IC50: > 2560 nM
[48]
  IC50: > 2560 nM
[49]
  IC50: > 2560 nM
[52]
  IC50: > 2560 nM
[50]
  IC50: > 2560 nM
